Data: patent US20030194750A1, “Methods for treatment of diseases where GSK 3-beta is desired, and methods to identify compounds usefule for that” (priority 2002, published 2003)
Like-named read-outs stand apart in the source and are kept apart here.

How the values were obtained:
[1] = biological target: T1, GST-cGB-PDE5 fusion protein (Homo sapiens, UniProt O76074); test: cGMP binding assay with GST-cGB-PDE5 fusion protein; details: for competition with cGMP binding at high concentration: 100 μM compound vs cGMP 2 μM
T1 construct: made in house; host or cells: E. coli BL21 (DE3)
Method: 5′-3′, Inc. kits for total RNA followed by oligo (dT) column purification of mRNA are used with HT-29 cells. […] It is then cloned into pGEX-5X-3 glutathione-S-transferase (GST) fusion vector (Pharmacia Biotech) with tac promoter, and EcoRI and XhoI cut sites. The fusion vector is then transfected into E. Coli BL21 (DE3) bacteria (Invitrogen). The transfected BL21 bacteria is grown to log phase, and then IPTG is added as an inducer. The induction is carried at 20° C. for 24 hrs. The bacteria are harvested and lysed. The soluble cell lysate is incubated with GSH conjugated Sepharose 4B (GSH-Sepharose 4B). The GST-cGB-PDE5 fusion protein can bind to the GSH-Sepharose beads, and the other proteins are washed off from beads with excessive cold PBS.
Then, the mixture is transferred to Brandel MB-24 cell harvester with GF/B as the filter membrane followed by 2 washes with 10 mL of cold 5 mM potassium buffer( pH 6.8). The membranes are then cut out and transferred to scintillation vials followed by the addition of 1 mL of H2O and 6 mL of Ready Safe™ liquid scintillation cocktail to each vial. The vials are counted on a Beckman LS 6500 scintillation counter.
The quenching by filter membrane or other debris are also calibrated.

PKG1β = test: Western blot of PKG1β in SW480 cells; format: cell-based, human; details: various concentrations, 48 hours
Method: (§1) 50 μg protein/lane were analyzed by Western blot analysis using specific anti-PKG1β and anti-GSK3β-phospho-ser9 antibodies.

GSK3β = test: Western blot of GSK3β-phospho-ser9 in SW480 cells; format: cell-based, human; details: various concentrations, 48 hours, vs 0 concentration
Method: as §1

T1 sequence (O76074 46-539 limits assumed): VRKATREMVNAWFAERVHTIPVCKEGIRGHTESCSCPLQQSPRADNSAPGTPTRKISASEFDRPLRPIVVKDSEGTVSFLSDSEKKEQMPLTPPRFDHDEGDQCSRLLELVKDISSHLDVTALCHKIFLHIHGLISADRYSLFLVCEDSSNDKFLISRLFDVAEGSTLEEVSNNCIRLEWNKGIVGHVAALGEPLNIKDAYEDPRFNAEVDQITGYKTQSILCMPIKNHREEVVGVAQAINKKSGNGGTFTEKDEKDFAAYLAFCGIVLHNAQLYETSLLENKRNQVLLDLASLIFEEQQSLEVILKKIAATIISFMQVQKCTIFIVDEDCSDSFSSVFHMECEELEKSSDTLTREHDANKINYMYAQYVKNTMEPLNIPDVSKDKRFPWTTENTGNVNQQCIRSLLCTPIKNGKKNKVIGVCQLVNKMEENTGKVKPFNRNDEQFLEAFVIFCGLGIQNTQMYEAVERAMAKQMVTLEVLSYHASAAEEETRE

Structure (SMILES)	competition with cGMP for the cGMP binding sites ([1]; 3H-cGMP 2 μM, 22° C., 1 hour)	other results
CCCCOC1C2OP(=O)(O)OCC2OC1n1cnc2c(N)ncnc21 (centres unmarked) [2′-O-butyl-cAMP]	did not compete with cGMP in binding	
CCCCOC1C2OP(=O)(O)OCC2OC1n1cnc2c(=O)[nH]c(N)nc21 (centres unmarked) [2′-O-butyl-cGMP]	did not compete with cGMP in binding	
COc1cc(/C=C2/C(C)=C(CC(=O)NCc3ccccc3)c3cc(F)ccc32)cc(OC)c1OC [Compound A, 1H-indene-3-acetamide, 5-fluoro-2-methyl-N-(phenylmethyl)-1-[(3,4,5-trimethoxyphenyl)methylene]-, (1Z)]		PKG1 induction (PKG1β): PKG1 induction in a dose-dependent manner; GSK3β inactivation by Ser9 phosphorylation (GSK3β): inactivated in vivo by phosphorylation of its Ser9
Nc1ncnc2c1ncn2[C@@H]1O[C@@H]2COP(=O)(O)O[C@H]2[C@H]1O [Cyclic AMP]		competition with cGMP for the cGMP binding sites [1]: did not compete with cGMP in binding
O=c1[nH]cnc2c1ncn2[C@@H]1O[C@@H]2COP(=O)(O)O[C@H]2[C@H]1O [Cyclic IMP]		competition with cGMP binding at high concentration [1]: can partially compete with cGMP
Nc1nc2c(nc(Br)n2[C@@H]2O[C@@H]3COP(=O)(O)O[C@H]3[C@H]2O)c(=O)[nH]1 [Example 8-bromo-cGMP, 8-bromo-cGMP]		competition with cGMP binding at high concentration [1]: can partially compete with cGMP
CSc1ccc(/C=C2/C(C)=C(CC(=O)O)c3cc(F)ccc32)cc1 [Sulindac sulfide]	None of the PDE5 inhibitors showed any competition with cGMP in binding	
Nc1ccn([C@@H]2O[C@@H]3COP(=O)(O)O[C@H]3[C@H]2O)c(=O)n1 [cCMP, cyclic CMP]	did not compete with cGMP in binding	
O=c1ccn([C@@H]2O[C@@H]3COP(=O)(O)O[C@H]3[C@H]2O)c(=O)[nH]1 [cUMP, cyclic UMP]	did not compete with cGMP in binding	
CCCOc1ccccc1-c1nc2nn[nH]c2c(=O)[nH]1 [zaprinast]	None of the PDE5 inhibitors showed any competition with cGMP in binding	
